Source: PubChem BioAssay (NCI)
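Assay format: 96-well plates, 48-hour exposure. Definition used: TGI = concentration required for complete inhibition of growth.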

How the values were obtained:
Experiment in all cases: NCI tumour cell line growth inhibition, 48 h
786-0 renal = test system: 786-0 renal
M14 melanoma = test system: M14 melanoma
MDA-MB-231 breast = test system: MDA-MB-231 breast
NCI/ADR-RES ovarian = test system: NCI/ADR-RES ovarian
SW-620 colon = test system: SW-620 colon
RPMI-8226 leukemia = test system: RPMI-8226 leukemia
LOX IMVI melanoma = test system: LOX IMVI melanoma
K-562 leukemia = test system: K-562 leukemia
COLO 205 colon = test system: COLO 205 colon
ACHN renal = test system: ACHN renal
PC-3 prostate = test system: PC-3 prostate
OVCAR-3 ovarian = test system: OVCAR-3 ovarian
HCT-116 colon = test system: HCT-116 colon
DU-145 prostate = test system: DU-145 prostate
SNB-19 CNS = test system: SNB-19 CNS
CCRF-CEM leukemia = test system: CCRF-CEM leukemia
SF-295 CNS = test system: SF-295 CNS
HOP-92 NSCLC = test system: HOP-92 NSCLC
HCC-2998 colon = test system: HCC-2998 colon
SN12C renal = test system: SN12C renal

| SMILES | TGI (786-0 renal) | TGI (M14 melanoma) | TGI (MDA-MB-231 breast) | TGI (NCI/ADR-RES ovarian) | TGI (SW-620 colon) | TGI (RPMI-8226 leukemia) | TGI (LOX IMVI melanoma) | TGI (K-562 leukemia) | TGI (COLO 205 colon) | TGI (ACHN renal) | TGI (PC-3 prostate) | TGI (OVCAR-3 ovarian) | TGI (HCT-116 colon) | TGI (DU-145 prostate) | TGI (SNB-19 CNS) | TGI (CCRF-CEM leukemia) | TGI (SF-295 CNS) | TGI (HOP-92 NSCLC) | TGI (HCC-2998 colon) | TGI (SN12C renal) |
| --- | --- | --- | --- | --- | --- | --- | --- | --- | --- | --- | --- | --- | --- | --- | --- | --- | --- | --- | --- | --- |
| COC(=O)C1=C(O)C(C(=O)OC)[C@]2(O)[C@H](C(=O)OC)[C@H]1C[C@@H](c1ccc(O)cc1)[C@H]2C(=O)OC (stereo not given in full) | > 100 µM | > 100 µM | 60.7 µM | > 100 µM | > 100 µM | > 100 µM | > 100 µM | > 100 µM | > 100 µM | > 100 µM | 76.4 µM | 35.6 µM | 94.3 µM | 71.6 µM | > 100 µM | > 100 µM | 58.8 µM | > 100 µM | 46.5 µM | > 100 µM |
| Cc1cccc2c1CC(C1OC(=O)c3c(C)cccc31)C2=O (stereo not given) | > 100 µM | > 100 µM | > 100 µM | > 100 µM | > 100 µM | > 100 µM | > 100 µM | > 100 µM | > 100 µM | > 100 µM | > 100 µM | > 100 µM | > 100 µM | > 100 µM | > 100 µM | > 100 µM | > 100 µM | > 100 µM | > 100 µM | > 100 µM |
| CCOC(=O)CCN1C(=O)c2ccc(NC(=O)C(=O)O)cc2S1(=O)=O | > 100 µM | > 100 µM | > 100 µM | > 100 µM | > 100 µM | > 100 µM | > 100 µM | > 100 µM | > 100 µM | > 100 µM | > 100 µM | > 100 µM | > 100 µM | > 100 µM | > 100 µM | > 100 µM | > 100 µM | > 100 µM | > 100 µM | > 100 µM |
| N/C(=N\Nc1cccc(Cl)c1)c1cccnc1 | > 100 µM | 59.2 µM | > 100 µM | > 100 µM | > 100 µM | > 89.9 µM | > 100 µM | > 100 µM | > 72.1 µM | > 100 µM | > 100 µM | > 86.3 µM | > 100 µM | > 100 µM | > 100 µM | > 100 µM | > 100 µM | > 100 µM | > 100 µM | > 100 µM |
| COc1ccc2c(c1)nc1n2C(c2c(F)cccc2F)SC1 (stereo not given) | > 100 µM | > 100 µM | > 100 µM | > 100 µM | > 100 µM | > 100 µM | > 100 µM | > 100 µM | > 100 µM | > 100 µM | > 100 µM | > 100 µM | > 100 µM | > 100 µM | > 100 µM | > 100 µM | > 100 µM | > 100 µM | > 100 µM | > 100 µM |
| CN(C)c1ccc(/C=C(\NC(=O)c2ccccc2)c2nc3ccccc3c(=O)o2)cc1 | > 100 µM | > 100 µM | > 100 µM | > 100 µM | > 100 µM | > 100 µM | > 100 µM | > 100 µM | > 100 µM | > 100 µM | > 100 µM | > 100 µM | > 100 µM | > 100 µM | > 100 µM | > 100 µM | > 100 µM | > 100 µM | > 100 µM | > 100 µM |
| C=CCN1C(=O)/C(=C/c2ccccc2)N=C1SC/C=C/C | > 100 µM | > 100 µM | > 100 µM | > 100 µM | > 100 µM | 49 µM | > 100 µM | > 100 µM | > 100 µM | > 100 µM | 55.8 µM | > 100 µM | > 100 µM | > 100 µM | > 100 µM | > 100 µM | > 100 µM | 55.5 µM | 76.6 µM | > 100 µM |
| Clc1ccccc1-c1nn2c(CCCCCCCCc3nnc4sc(-c5ccccc5Cl)nn34)nnc2s1 | > 100 µM | > 100 µM | > 100 µM | > 100 µM | > 100 µM | > 100 µM | > 100 µM | > 100 µM | > 100 µM | > 100 µM | > 100 µM | > 100 µM | > 100 µM | > 100 µM | > 100 µM | > 100 µM | > 100 µM | > 100 µM | > 100 µM | > 100 µM |
| COc1ccc(C[C@H]2NC[C@H](OC(C)=O)[C@H]2OC(C)=O)cc1 | 1.05 µM | 0.328 µM | 1.49 µM | 0.788 µM | 1.14 µM | 1.95 µM | 0.331 µM | 51.6 µM | 0.311 µM | 0.853 µM | 1.08 µM | 0.85 µM | 0.685 µM | 0.903 µM | 0.446 µM | 1.18 µM | 4.26 µM | 0.356 µM | 0.357 µM | 0.752 µM |
| NS(=O)(=O)c1ccc(NC(=S)/N=C/c2c(O)c3ccccc3[nH]c2=O)cc1 | > 100 µM | > 100 µM | > 100 µM | > 100 µM | > 100 µM | > 100 µM | > 100 µM | > 100 µM | > 100 µM | > 100 µM | > 100 µM | > 100 µM | > 100 µM | > 100 µM | > 100 µM | > 100 µM | > 100 µM | > 100 µM | > 100 µM | > 100 µM |
| CN(O)C(=O)c1ccc(OCc2cccc(Cl)c2)cc1 | 53.1 µM | > 50 µM | > 100 µM | > 89.4 µM | > 100 µM | > 100 µM | > 100 µM | > 100 µM | > 100 µM | > 68.3 µM | > 100 µM | > 100 µM | > 100 µM | 98.2 µM | > 100 µM | > 100 µM | > 82.8 µM | > 100 µM | > 53.3 µM | > 95.1 µM |
| COc1ccc(/C=C/C(=N/NC(=O)N/N=C(/C=C/c2ccc(OC)cc2)C(C)C)C(C)C)cc1 | > 100 µM | > 100 µM | > 100 µM | > 100 µM | > 100 µM | > 100 µM | > 100 µM | > 100 µM | > 100 µM | > 100 µM | > 100 µM | > 100 µM | > 100 µM | > 100 µM | > 100 µM | > 100 µM | > 100 µM | > 100 µM | > 100 µM | > 100 µM |
